Measured values: patent publication US20090297566A1, “Oxygen-impervious packaging with optional oxygen scavenger, stabilized thyroid hormone compositions and methods for storing thyroid hormone pharmaceutical compositions” (priority 2004, published 2009)

Key:
[1] = Effects of desiccation and oxygen on levothyroxine sodium raw material, forced degradation at 60°C, potency; type: physicochemical; conditions: for % Potency: raw material
Experimental: (§1) This study investigated the effects of humidity and oxygen on the storage of levothyroxine sodium raw material under forced degradation conditions (60° C.).
(§2) High temperature and humidity was known to contribute to potency loss of levothyroxine sodium. Thus, a desiccant was added to the packaging create a low moisture environment to test the effect of reduced humidity upon the shelf life of the product. This study also used a FreshPax Pharma O2 Absorbing Packet as an oxygen scavenger. This oxygen scavenger reduced the level of oxygen in the package to less than 1%. All samples were packaged in 40 cc HDPE bottles.
(§3) • 1. 60 g of levothyroxine sodium raw material was selected. • 2. The levothyroxine was assayed in duplicate to establish the initial potency under laboratory conditions. • 4. The samples were preparation under laboratory conditions. • 5. 3 g was distributed to each of eighteen 40 cc bottles. • 6. 1 g desiccant was added to each of six bottles. • 7. A single FreshPax Pharma O2 Absorbing Packet was added to each of six bottles. • 8. The remaining six bottles were packaged without desiccant or a packet of FreshPax Pharma O2. • 9. The bottles were capped and sealed using a Compak Jr Sealer and appropriate CRC caps. • 10. All bottles were placed in a 60° C. oven. • 11. The samples were tested for potency, as described in Example 2 and water content at 1-week intervals for three weeks, with a previously unopened sample bottle being tested at each interval. Potency analysis was conducted in duplicate weighings from each bottle correcting for actual water content.

[2] = Water content of levothyroxine sodium raw material during forced degradation at 60°C; type: physicochemical; conditions: for % H2O: raw material
Experimental: as §1, §2, §3

[3] = raw material with FreshPax Pharma O2 packet, 60°C, three weeks
[4] = 3 g in 40 cc HDPE bottle, Initial
[5] = B: FreshPax Pharma O2 packet, 60°C, 1 wk
[6] = B: FreshPax Pharma O2 packet, 60°C, 2 wk
[7] = B: FreshPax Pharma O2 packet, 60°C, 3 wk

N[C@@H](Cc1cc(I)c(Oc2cc(I)c(O)c(I)c2)c(I)c1)C(=O)[O-].[Na+] [Levothyroxine Sodium, 3,3′,5,5′-tetraiodo-L-thyronine sodium salt]
stability ([1]; raw material packaged with FreshPax Pharma O2 packet, 60°C, three weeks): stable | potency loss ([1]; raw material with 1 g silica gel desiccant, 60°C, three-week study): 2.8% | potency loss [1, 3]: 0.4% | % Potency [1, 4]: 99.2% | % Potency ([1]; A: 1 g silica gel, 60°C, 1 wk): 97.6% | % Potency ([1]; A: 1 g silica gel, 60°C, 2 wk): 97.2% | % Potency ([1]; A: 1 g silica gel, 60°C, 3 wk): 96.4% | % Potency [1, 5]: 99.8% | % Potency [1, 6]: 99.5% | % Potency [1, 7]: 98.8% | % Potency ([1]; C: API alone, 60°C, 1 wk): 99.6% | % Potency ([1]; C: API alone, 60°C, 2 wk): 98% | % Potency ([1]; C: API alone, 60°C, 3 wk): 97.3% | loss of water content ([2]; raw material with 1 g silica gel desiccant, 60°C, within the first week): over 1% | water content deviation from original water content [2, 3]: ≤ 1% | % H2O [2, 4]: 9.9% | % H2O ([2]; A: 1 g silica gel, 60°C, 1 wk): 8.5% | % H2O ([2]; A: 1 g silica gel, 60°C, 2 wk): 8.7% | % H2O ([2]; A: 1 g silica gel, 60°C, 3 wk): 8.8% | % H2O [2, 5]: 9.1% | % H2O [2, 6]: 9.6% | % H2O [2, 7]: 9.6% | % H2O ([2]; C: API alone, 60°C, 1 wk): 9.4% | % H2O ([2]; C: API alone, 60°C, 2 wk): 8.9% | % H2O ([2]; C: API alone, 60°C, 3 wk): 8.8%
